Experiments:
leukemia = assay: Phase I trial, escalation and evaluation period; assay type: in vivo, human; details: up to 0.05 mg/kg/day i.v. six consecutive days, escalation period
Experimental: Fourteen patients were treated. The patient selection met the following criteria: (a) all types of leukemia, (b) all patients previously treated without success, (e) no X-ray or chemotherapy was administered four weeks prior to therapy, (d) at least eight weeks follow-up. In the escalation period 0.01 mg/kg/day i.v. was given five consecutive days as initial dose.
DOSAGE OF F-LEUROSINE IN PHASE I TRIAL
In addition, eight patients were added to the group treated on the basis of this schedule.

[1] = tested on: leukemias and haemoblastoses; assay: therapeutic results in leukemias and haemoblastoses (Table VII); assay type: in vivo, human
Experimental: In addition, eight patients were added to the group treated on the basis of this schedule. Therapeutic results obtained by F-Leurosine in leukemias and haemoblastoses are listed in Table VII. |Therapeutic Results Obtained by F-Leurosine Treatment

Yoshida ascites sarcoma = assay: antitumor effect on Yoshida ascites sarcoma; assay type: in vivo
Source text: (§1) The treatment extends the life span of animals suffering from L-1210 lymphoid leukemia, s37 ascites sarcoma or Yoshida ascites sarcoma by about 150 to 250 percent.
(§2) EFFECT OF F-LEUROSINE ON ASCITIC TUMORS

Novikoff = assay: antitumor effect on Novikoff ascitic tumor; assay type: in vivo
Source text: |EFFECT OF F-LEUROSINE ON ASCITIC TUMORS

solid tumors = assay: clinical treatment of patients with solid tumors (Example B); assay type: in vivo, human; details: for decrease of prothrombin index and activity: by the 7th day of treatment
Experimental: N-formyl-leurosine was administered in form of i.v. injection as single treatment or in 5 and 2×5 day long periods continually to exclusively patients with solid tumors.
Simultaneously adjuvant therapy was applied (analgesics, antibiotics, cardiac drugs, roborants) if necessary.
Following single treatments primarily the effect on blood picture, and especially on leukocyte count was observed. In case of higher total doses given continuously for 5 or 10 days, liver function, enzymes, serum creatinine, uric acid level were also determined. The neurological condition of the patients was also controlled.

Harding Passey melanoma = assay: growth inhibition of Harding Passey melanoma; assay type: in vivo
[2] = tested on: Ehrlich ascites carcinoma; assay: antitumor effect on Ehrlich ascites carcinoma; assay type: in vivo, mice
Source text: (§3) This compound provides complete recovery or a 300 percent extension of life span in 50 to 70 percent of the cases, in tests on mice inoculated with Ehrlich ascites carcinoma or NK/Ly lymphoma.
as §2

VX-2 rabbit epitheloma = assay: growth inhibition of VX-2 rabbit epitheloma; assay type: in vivo
[3] = acute toxicity in Swiss mice; assay type: in vivo, mouse; details: mouse, in vivo, Swiss mice
Source text: (§4) ACUTE TOXICITY IN SWISS MICE
(§5) Table III lists the comparative toxicological data concerning Vincristine, Vinblastine and F-leurosine. The new analogue is approximately 7 times less toxic than Vincristine and 4 times less toxic than Vinblastine in acute rodent experiments.

Swiss mice = assay: acute toxicity in Swiss mice; assay type: in vivo, mouse
Source text: as §4, §5

[4] = tolerability and therapeutical range in animal tests; assay type: in vivo
Experimental: A dose of 0.3 to 5.0 mg./kg. of body weight can also be used in human therapy, although the dosage can be as low as 0.01 mg./kg. daily.

[5] = tested on: lymphoma, leukemia and Hodgkins disease; assay: antitumor activity; assay type: in vivo
NK/Ly lymphoma = assay: antitumor effect on NK/Ly lymphoma; assay type: in vivo, mice
Source text: as §3, §2

[6] = tested on: granulocytes, lymphocytes, platelets; assay: haematological parameters; assay type: in vivo
leukaemias = assay: effect of F-leurosine on leukaemias in patients (Table I); assay type: in vivo, human; details: for haematological effect: schedule C
S 37 ascites sarcoma = assay: antitumor effect on S 37 ascites sarcoma; assay type: in vivo
Source text: as §1, §2

rhabdomyo-sarcoma = assay: growth inhibition of induced and transplanted rhabdomyo-sarcoma; assay type: in vivo
[7] = 4 × 3.0 mg/kg i.p. each other day
[8] = 4 × 0.6 mg/kg i.p. each other day

CCC12CN3CCc4c([nH]c5ccccc45)[C@@](C(=O)OC)(c4cc5c(cc4OC)N(C=O)[C@H]4[C@@](O)(C(=O)OC)[C@H](OC(C)=O)[C@]6(CC)C=CCN7CC[C@]54[C@@H]76)C[C@@H](C3)C1O2 (stereo partly shown) [N-formyl-leurosine]
antitumor activity (leukemia): striking antitumor activity | signs of toxicity (leukemia): without signs of toxicity | Complete remission ([1]; ALL, 1 patient): 1 patients | Complete remission ([1]; AML, 1 patient): 1 patients | Partial remission ([1]; AMoL, 1 patient): 1 patients | Partial remission ([1]; AUL, 1 patient): 1 patients | Partial remission ([1]; CLL, 3 patients): 3 patients | No response ([1]; Hodgkin's disease, 2 patients): 2 patients | No response ([1]; LSC, 5 patients): 1 patients | Partial remission ([1]; LSC, 5 patients): 4 patients | No response ([1]; Multiple myelomo, 6 patients): 2 patients | Partial remission ([1]; Multiple myelomo, 6 patients): 4 patients | No response ([1]; RSC, 2 patients): 1 patients | Partial remission ([1]; RSC, 2 patients): 1 patients | Complete remission ([1]; Total, 22 patients): 2 patients | No response ([1]; Total, 22 patients): 6 patients | Partial remission ([1]; Total, 22 patients): 14 patients | Survival (Yoshida ascites sarcoma; 9 × 0.5 mg/kg i.p. daily): 143 | Tumor free (Yoshida ascites sarcoma; 9 × 0.5 mg/kg i.p. daily): 0/6 | Survival (Yoshida ascites sarcoma; 9 × 1.0 mg/kg i.p. daily): 173 | Tumor free (Yoshida ascites sarcoma; 9 × 1.0 mg/kg i.p. daily): 2/6 | Survival (Yoshida ascites sarcoma; 9 × 2.0 mg/kg i.p. daily): 243 | Tumor free (Yoshida ascites sarcoma; 9 × 2.0 mg/kg i.p. daily): 4/6 | extension of life span (Yoshida ascites sarcoma; Yoshida ascites sarcoma, about): 150-250% | Survival (Novikoff; [7]): 196 | Tumor free (Novikoff; [7]): 1/6 | Survival (Novikoff; 6 × 2.0 mg/kg i.p. daily): 166 | Tumor free (Novikoff; 6 × 2.0 mg/kg i.p. daily): 0/6 | tumor growth: progress during the treatment (solid tumors; 0.018 mg/kg during 2×5 days, one case): express progress during the treatment | tumor growth: regression by X-ray and touching (solid tumors; 0.030 mg/kg during 2×5 days, one case): slight regression | leukocyte count change (solid tumors; between the 3rd and 5th days): decreased again | leukocyte count level (solid tumors; between the 3rd and 5th days, remained over): over 3000 | leukocyte count (solid tumors; between the 9th and 14th days): returns to the initial value | tumor growth: other cases (solid tumors; continuous administration): No changes were found in other cases | effect on tumor growth (solid tumors; continuous administration of 0.018-0.035 mg/kg doses): some effect was observed | qualitative blood picture (solid tumors; dose level presently used): no change was shown | levels of enzymes (serum alk, phosphatase, SGOT, SGPT) (solid tumors; during the treatment): did not essentially change | leukocyte count (solid tumors; first 48 hours): increased | liver function, urinalysis, serum creatinine and uric acid levels (solid tumors; human, in vivo): no changes or signs indicating toxicity were found | neurological side-effects (solid tumors; human, in vivo): not observed | decrease of prothrombin index and activity (solid tumors; one case): 50% | prothrombin-time, increase (solid tumors; six cases): increased in three cases out of six | prothrombin time, decrease (solid tumors; two cases): very slightly decreased | decrease of prothrombin index and activity (solid tumors; two cases): 37% | growth inhibition (Harding Passey melanoma): remarkable growth inhibition | extension of life span [2]: 300% | Survival [2, 8]: 288 | Tumor free [2, 8]: 7/10 | Survival ([2]; 7 × 3.0 mg/kg i.p. daily): 244 | Tumor free ([2]; 7 × 3.0 mg/kg i.p. daily): 3/10 | Survival ([2]; 24 × 0.15 mg/kg i.p. daily): 118 | Tumor free ([2]; 24 × 0.15 mg/kg i.p. daily): 3/10 | growth inhibition (VX-2 rabbit epitheloma): remarkable growth inhibition | LD50 ([3]; ip, 1 x i.p.): 28.8 mg/kg | LD50 ([3]; iv, 1 x i.v.): 32.5 mg/kg | times less toxic than Vinblastine (Swiss mice; acute rodent experiments): ~4 times | times less toxic than Vincristine (Swiss mice; acute rodent experiments): approximately 7 times | signs of neurotoxicity (Swiss mice; even subluthal doses, experimental animals): did not show any signs of neurotoxicity | toxicity relative to vinblastine (Swiss mice; i.p., on mice (text b8)): about five times less toxic than vinblastine | toxicity relative to vincristine (Swiss mice; i.p., on mice (text b8)): about ten times less toxic than vincristine | side-effects ([4]; 0.3 to 5.0 mg./kg. for prolonged periods, animals): without causing side-effects characteristic of and unavoidable with the known vinca-alkaloids | therapeutical range compared with vincristine ([4]; animal tests): somewhat similar to that of vincristine | therapeutical range compared with vinleurosine ([4]; animal tests): about four times broader than that of vinleurosine | antitumor activity [5]: favorable antitumor activity | extension of life span (NK/Ly lymphoma): 300% | Survival (NK/Ly lymphoma; 8 × 0.5 mg/kg i.p. daily): 250 | Tumor free (NK/Ly lymphoma; 8 × 0.5 mg/kg i.p. daily): 2/10 | lowering of number of granulocytes ([6]; 0.6 mg/kg): 50% | number of lymphocytes ([6]; 15 mg/kg): decreased only after administration of 15 mg/kg | platelet count ([6]; similar dose level): No significant changes | clinical improvement parallel with the haematological one (leukaemias; ALL and AML patients): observed only in the case of the ALL patient | duration of complete haematological remission (leukaemias; ALL patient): 2 months | outcome after treatment (leukaemias; AML patient): died one month after the end of the treatment | time to relapse after finishing treatment (leukaemias; AML patient, relapse untreatable because of serious thrombopenia and bleeding): 14 days | splenomegaly (leukaemias; CLL, first case): splenomegaly diminished | enlargement of pathological lymph nodes (leukaemias; CLL, second case (T. B.)): became less pronounced | lymph nodes and spleen volume (leukaemias; CLL, third case): both the lymph nodes and the spleen increased in volume | clinical improvement (leukaemias; chronic lymphocytic leukaemia): some clinical improvement was achieved in all the 3 CLL patients | haematological remission (leukaemias; chronic lymphocytic leukaemia): no haematological remission could be induced | complete haematological remission (leukaemias; four cases of acute leukaemia, one ALL, one AML): Complete haematological remission was achieved in two cases | haematological effect (leukaemias; patient seven, AMoL): IR>50% | haematological effect (leukaemias; patient six, AUL): IR>50% | Tumor free (S 37 ascites sarcoma; 4 × 2.5 mg/kg i.p. daily): 4/6 | Tumor inhibition (S 37 ascites sarcoma; 4 × 2.5 mg/kg i.p. daily): 100 | Survival (S 37 ascites sarcoma; 8 × 1.0 mg/kg i.p. daily): 268 | Tumor free (S 37 ascites sarcoma; 8 × 1.0 mg/kg i.p. daily): 1/6 | extension of life span (S 37 ascites sarcoma; s37 ascites sarcoma, about): 150-250% | growth inhibition (rhabdomyo-sarcoma): remarkable growth inhibition
